Source: ChEMBL document CHEMBL1212772

Experiments:
[1] = molecular target: Beta-lactamase (Escherichia coli) (UniProt Q53TY8); assay: Activity of Escherichia coli CMY-2 relative to Cephaloridine
[2] = molecular target: Beta-lactamase OXA-23 (Acinetobacter baumannii) (UniProt Q9L4P2); assay: Kcat/Km ratio of Acinetobacter baumannii OXA-23 relative to Cephaloridine
[3] = molecular target: Beta-lactamase CTX-M (Escherichia coli) (UniProt Q9EXV5); assay: Kcat/Km ratio of Escherichia coli CTX-M-15 relative to Cephaloridine
[4] = molecular target: Carbapenem-hydrolyzing beta-lactamase KPC (Klebsiella pneumoniae) (UniProt Q9F663); assay: Kcat/Km ratio of Klebsiella pneumoniae KPC-2 relative to Cephaloridine
Klebsiella oxytoca [5] = assay: Activity of Klebsiella oxytoca Beta-lactamase K1 relative to Cephaloridine
[6] = molecular target: T1, Beta-lactamase IMP-1 (Pseudomonas aeruginosa) (UniProt Q8G9Q0); assay: Kcat/Km ratio of Pseudomonas aeruginosa IMP-1 relative to Cephaloridine
T1 sequence (whole entry): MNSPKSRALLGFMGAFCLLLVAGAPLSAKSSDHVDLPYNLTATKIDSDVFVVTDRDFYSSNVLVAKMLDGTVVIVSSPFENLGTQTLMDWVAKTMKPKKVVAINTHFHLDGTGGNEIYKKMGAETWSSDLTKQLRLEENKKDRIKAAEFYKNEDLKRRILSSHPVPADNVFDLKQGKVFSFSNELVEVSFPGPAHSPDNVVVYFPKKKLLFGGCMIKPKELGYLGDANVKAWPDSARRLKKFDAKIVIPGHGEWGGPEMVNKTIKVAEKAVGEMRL

[7] = molecular target: Beta-lactamase (Enterobacter cloacae) (UniProt P05364); assay: Kcat/Km ratio of Enterobacter cloacae AmpC relative to Cephaloridine
Klebsiella pneumoniae = assay: Activity of Klebsiella pneumoniae Beta-lactamase TEM-26
[8] = molecular target: Carbapenem-hydrolyzing beta-lactamase KPC (Klebsiella pneumoniae) (UniProt Q9F663); assay: Activity of Klebsiella pneumoniae KPC-2 relative to Cephaloridine
[9] = molecular target: Beta-lactamase OXA-10 (Pseudomonas aeruginosa) (UniProt P14489); assay: Activity of Pseudomonas aeruginosa OXA-10 relative to Cephaloridine
Escherichia coli [10] = assay: Kcat/Km ratio of Klebsiella pneumoniae Beta-lactamase TEM-26 relative to Cephaloridine
[11] = molecular target: T1, Beta-lactamase IMP-1 (Pseudomonas aeruginosa); assay: Activity of Pseudomonas aeruginosa IMP-1 relative to Cephaloridine
Escherichia coli [12] = assay: Activity of Klebsiella pneumoniae Beta-lactamase TEM-26 relative to Cephaloridine
[13] = molecular target: Beta-lactamase (Pseudomonas aeruginosa (strain ATCC 15692 / PAO1 / 1C / PRS 101 / LMG12228)) (UniProt P24735); assay: Kcat/Km ratio of Pseudomonas aeruginosa AmpC relative to Cephaloridine
Klebsiella oxytoca [14] = assay: Kcat/Km ratio of Klebsiella oxytoca Beta-lactamase K1 relative to Cephaloridine
[15] = molecular target: T2, Carbapenem-hydrolyzing beta-lactamase SME-3 (Serratia marcescens) (UniProt Q6PRG8); assay: Kcat/Km ratio of Serratia marcescens SME-3 relative to Cephaloridine
T2 sequence (whole entry): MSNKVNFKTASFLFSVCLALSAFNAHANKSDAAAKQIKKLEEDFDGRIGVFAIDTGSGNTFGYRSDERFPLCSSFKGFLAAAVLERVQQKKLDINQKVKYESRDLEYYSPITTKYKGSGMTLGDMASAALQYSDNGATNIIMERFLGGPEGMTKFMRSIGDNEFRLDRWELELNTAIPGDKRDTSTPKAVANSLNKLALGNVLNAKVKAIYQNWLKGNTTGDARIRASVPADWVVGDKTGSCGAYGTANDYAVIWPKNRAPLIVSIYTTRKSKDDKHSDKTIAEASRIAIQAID

[16] = molecular target: Beta-lactamase TEM (Escherichia coli) (UniProt P62593); assay: Kcat/Km ratio of Escherichia coli TEM-1 relative to Cephaloridine
Klebsiella oxytoca [17] = assay: Activity of Klebsiella oxytoca Beta-lactamase K1
[18] = molecular target: T3, Beta-lactamase SHV-1 (Klebsiella pneumoniae) (UniProt P0AD64); assay: Activity of Klebsiella pneumoniae SHV-1 relative to Cephaloridine
T3 sequence (whole entry): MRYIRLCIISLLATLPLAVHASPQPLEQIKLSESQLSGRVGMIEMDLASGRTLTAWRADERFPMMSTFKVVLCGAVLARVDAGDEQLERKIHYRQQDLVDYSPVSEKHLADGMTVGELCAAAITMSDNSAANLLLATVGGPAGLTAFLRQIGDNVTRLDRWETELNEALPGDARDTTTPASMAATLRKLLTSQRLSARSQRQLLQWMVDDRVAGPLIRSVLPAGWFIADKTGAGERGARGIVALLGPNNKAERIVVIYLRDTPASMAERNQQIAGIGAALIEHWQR

[19] = molecular target: Beta-lactamase OXA-23 (Acinetobacter baumannii) (UniProt Q9L4P2); assay: Activity of Acinetobacter baumannii OXA-23 relative to Cephaloridine
[20] = molecular target: Beta-lactamase (Enterobacter cloacae) (UniProt P05364); assay: Activity of Enterobacter cloacae AmpC relative to Cephaloridine
Klebsiella oxytoca [21] = assay: Kcat/Km ratio of Klebsiella oxytoca Beta-lactamase K1
[22] = molecular target: Beta-lactamase (Pseudomonas aeruginosa (strain ATCC 15692 / PAO1 / 1C / PRS 101 / LMG12228)) (UniProt P24735); assay: Activity of Pseudomonas aeruginosa AmpC relative to Cephaloridine
[23] = molecular target: Beta-lactamase TEM (Escherichia coli) (UniProt P62593); assay: Activity of Escherichia coli TEM-1 relative to Cephaloridine
[24] = molecular target: T3, Beta-lactamase SHV-1 (Klebsiella pneumoniae); assay: Kcat/Km ratio of Klebsiella pneumoniae SHV-1 relative to Cephaloridine
[25] = molecular target: T2, Carbapenem-hydrolyzing beta-lactamase SME-3 (Serratia marcescens); assay: Activity of Serratia marcescens SME-3 relative to Cephaloridine
Escherichia coli [26] = assay: Kcat/Km ratio of Klebsiella pneumoniae Beta-lactamase TEM-26
[27] = molecular target: Beta-lactamase CTX-M (Escherichia coli) (UniProt Q9EXV5); assay: Activity of Escherichia coli CTX-M-15 relative to Cephaloridine
[28] = molecular target: Beta-lactamase (Escherichia coli) (UniProt Q53TY8); assay: Kcat/Km ratio of Escherichia coli CMY-2 relative to Cephaloridine
[29] = molecular target: Beta-lactamase OXA-10 (Pseudomonas aeruginosa) (UniProt P14489); assay: Kcat/Km ratio of Pseudomonas aeruginosa OXA-10 relative to Cephaloridine
[30] = tested on: C[C@@H](O)[C@H]1C(=O)N2C(C(=O)O)=C(S[C@@H]3CN[C@H](CNS(N)(=O)=O)C3)[C@H](C)[C@H]12; assay: Kcat/Km ratio of Pseudomonas aeruginosa VIM-2
[31] = tested on: C[C@@H](O)[C@H]1C(=O)N2C(C(=O)O)=C(S[C@@H]3CN[C@H](CNS(N)(=O)=O)C3)[C@H](C)[C@H]12; assay: Activity of Pseudomonas aeruginosa VIM-2
[32] = molecular target: Beta-lactamase VIM-2 (Pseudomonas aeruginosa) (UniProt Q9K2N0); assay: Kcat/Km ratio of Pseudomonas aeruginosa VIM-2 relative to Cephaloridine
[33] = molecular target: Beta-lactamase VIM-2 (Pseudomonas aeruginosa) (UniProt Q9K2N0); assay: Activity of Pseudomonas aeruginosa VIM-2 relative to Cephaloridine

Molecule: C[C@@H](O)[C@H]1C(=O)N2C(C(=O)O)=C(SCCNC=N)C[C@H]12
- Activity [1]: 0.0044%
- Activity [2]: 14200%
- Activity [3]: 0.029%
- Activity [4]: 45%
- Activity (Klebsiella oxytoca [5]): 0.019%
- Activity [6]: 45%
- Activity [7]: 0.0066%
- Km (Klebsiella pneumoniae): 14 µM
- kcat (Klebsiella pneumoniae): 0.0024 s⁻¹
- Activity [8]: 7.9%
- Activity [9]: < 0.088%
- Activity (Escherichia coli [10]): 0.03%
- Activity [11]: 70%
- Activity (Escherichia coli [12]): 0.0065%
- Activity [13]: < 7%
- Activity (Klebsiella oxytoca [14]): 0.04%
- Activity [15]: 83%
- Activity [16]: 0.072%
- Km (Klebsiella oxytoca [17]): 51 µM
- kcat (Klebsiella oxytoca [17]): 0.091 s⁻¹
- Activity [18]: 0.013%
- Activity [19]: 0.2%
- Activity [20]: 0.00048%
- kcat/Km (Klebsiella oxytoca [21]): 1800 M⁻¹ s⁻¹
- Activity [22]: < 0.031%
- Activity [23]: 0.00097%
- Activity [24]: 0.092%
- Activity [25]: 31%
- kcat/Km (Escherichia coli [26]): 170 M⁻¹ s⁻¹
- Activity [27]: 0.09%

Molecule: CC(C)(O/N=C(\C(=O)N[C@@H]1C(=O)N2C(C(=O)[O-])=C(C[n+]3ccccc3)CS[C@H]12)c1csc(N)n1)C(=O)O
- Activity [4]: 0.22%
- Activity (Klebsiella oxytoca [5]): 0.0027%
- Activity [6]: 5.7%
- Km (Klebsiella pneumoniae): 130 µM
- kcat (Klebsiella pneumoniae): 95 s⁻¹
- Activity [8]: 0.097%
- Activity [9]: < 0.059%
- Activity (Escherichia coli [10]): 130%
- Activity [11]: 14%
- Activity (Escherichia coli [12]): 260%
- Activity [13]: < 0.48%
- Activity (Klebsiella oxytoca [14]): 0.0021%
- Km (Klebsiella oxytoca [17]): 140 µM
- kcat (Klebsiella oxytoca [17]): 0.013 s⁻¹
- Activity [18]: 0.0024%
- Activity [19]: < 0.00093%
- kcat/Km (Klebsiella oxytoca [21]): 93 M⁻¹ s⁻¹
- Activity [24]: 0.00077%
- Activity [28]: 0.033%
- kcat/Km (Escherichia coli [26]): 730000 M⁻¹ s⁻¹

Molecule: CC1(C)S[C@@H]2[C@H](NC(=O)Cc3ccccc3)C(=O)N2[C@H]1C(=O)O
- Activity [1]: 3.1%
- Activity [2]: 12000%
- Activity [4]: 260%
- Activity (Klebsiella oxytoca [5]): 160%
- Activity [6]: 19%
- Km (Klebsiella pneumoniae): 5 µM
- kcat (Klebsiella pneumoniae): 76 s⁻¹
- Activity [8]: 15%
- Activity [9]: 540%
- Activity (Escherichia coli [10]): 2700%
- Activity [11]: 520%
- Activity (Escherichia coli [12]): 210%
- Activity [13]: 1%
- Activity (Klebsiella oxytoca [14]): 440%
- Km (Klebsiella oxytoca [17]): 40 µM
- kcat (Klebsiella oxytoca [17]): 800 s⁻¹
- Activity [19]: 120%
- kcat/Km (Klebsiella oxytoca [21]): 2e+07 M⁻¹ s⁻¹
- Activity [22]: 46%
- Activity [28]: 420%
- Activity [29]: 14000%
- kcat/Km (Escherichia coli [26]): 1.5e+07 M⁻¹ s⁻¹

Molecule: Beta-lactamase VIM-2 (Pseudomonas aeruginosa) (from UniProt Q9K2N0)
- kcat/Km [30]: 29000 M⁻¹ s⁻¹
- Km [31]: 83 µM
- kcat [31]: 2.4 s⁻¹

Molecule: C[C@@H](O)[C@H]1C(=O)N2C(C(=O)O)=C(S[C@@H]3CN[C@H](C(=O)N(C)C)C3)[C@H](C)[C@H]12
- Activity [1]: 1.1e-05%
- Activity [2]: 14.9%
- Activity [3]: 0.0078%
- Activity [4]: 37%
- Activity (Klebsiella oxytoca [5]): 0.002%
- Activity [6]: 31%
- Activity [7]: 0.00042%
- Km (Klebsiella pneumoniae): 8.8 µM
- kcat (Klebsiella pneumoniae): 0.00039 s⁻¹
- Activity [8]: 0.92%
- Activity [9]: < 0.031%
- Activity (Escherichia coli [10]): 0.0079%
- Activity [11]: 9.6%
- Activity (Escherichia coli [12]): 0.0011%
- Activity [13]: < 1.6%
- Activity (Klebsiella oxytoca [14]): 0.0024%
- Activity [15]: 18%
- Activity [16]: 0.00083%
- Km (Klebsiella oxytoca [17]): 90 µM
- kcat (Klebsiella oxytoca [17]): 0.0096 s⁻¹
- Activity [18]: 0.00041%
- Activity [19]: 0.029%
- Activity [20]: 1.2e-05%
- kcat/Km (Klebsiella oxytoca [21]): 110 M⁻¹ s⁻¹
- Activity [22]: < 0.0063%
- Activity [23]: 2.3e-05%
- Activity [24]: 0.015%
- Activity [28]: 0.058%
- Activity [25]: 0.27%
- kcat/Km (Escherichia coli [26]): 44 M⁻¹ s⁻¹
- Activity [27]: 0.0022%

Molecule: O=C(Cc1cccs1)N[C@@H]1C(=O)N2C(C(=O)[O-])=C(C[n+]3ccccc3)CS[C@H]12
- Km (Klebsiella pneumoniae): 66 µM
- kcat (Klebsiella pneumoniae): 37 s⁻¹
- Km (Klebsiella oxytoca [17]): 110 µM
- kcat (Klebsiella oxytoca [17]): 490 s⁻¹
- kcat/Km (Klebsiella oxytoca [21]): 4.5e+06 M⁻¹ s⁻¹
- kcat/Km (Escherichia coli [26]): 560000 M⁻¹ s⁻¹

Molecule: O=C(Cc1cccs1)N[C@@H]1C(=O)N2C(C(=O)O)=C(/C=C/c3ccc([N+](=O)[O-])cc3[N+](=O)[O-])CS[C@H]12
- Activity [1]: 240%
- Activity [22]: 160%
- Activity [28]: 1800%

Molecule: C[C@@H](O)[C@H]1C(=O)N2C(C(=O)O)=C(S[C@@H]3CN[C@H](CNS(N)(=O)=O)C3)[C@H](C)[C@H]12
- Activity [1]: 1e-05%
- Activity [2]: 31%
- Activity [3]: 0.0051%
- Activity [4]: 45%
- Activity [32]: 34%
- Activity [33]: 2%
- Activity [6]: 28%
- Activity [7]: 0.00059%
- Km (Klebsiella pneumoniae): 8 µM
- kcat (Klebsiella pneumoniae): 0.00037 s⁻¹
- Activity [9]: < 0.046%
- Activity (Escherichia coli [10]): 0.0082%
- Activity [11]: 41%
- Activity (Escherichia coli [12]): 0.001%
- Activity [13]: < 1.2%
- Activity (Klebsiella oxytoca [14]): 0.0033%
- Activity [15]: 10%
- Activity [16]: 0.0022%
- Km (Klebsiella oxytoca [17]): 45 µM
- kcat (Klebsiella oxytoca [17]): 0.0068 s⁻¹
- Activity [18]: 0.00073%
- Activity [19]: 0.044%
- Activity [20]: 1.7e-05%
- kcat/Km (Klebsiella oxytoca [21]): 150 M⁻¹ s⁻¹
- Activity [22]: < 0.0063%
- Activity [23]: 2.1e-05%
- Activity [24]: 0.027%
- Activity [28]: 0.67%
- Activity [25]: 0.21%
- kcat/Km (Escherichia coli [26]): 46 M⁻¹ s⁻¹
- Activity [27]: 0.00095%
